Measured values taken from patent publication US10861154B2, “Cell analysis system, cell analysis program and cell analysis method” (Sony Corporation, priority 2013, dated 2020).

How the values were obtained:
Assay type in all cases: cell-based
[1] = system: rat cerebral cortex primary culture; assay: Motion amount of rat cerebral cortex primary culture after adding ionotropic receptor antagonists (Example 2)
Experimental: (§1) On the microscope having the chamber, iPS cell-derived neural cells “iCell Neuron” (produced by Cellular Dynamics International, Inc.) and rat cerebral cortex primary culture (produced by Lonza, Inc.) were each set. Video images of the cells, of 260 frames at object lens magnification 20× and at 7.5 fps (for iCell Neuron) or 5 fps (for rat cerebral cortex primary culture), were taken and were obtained as cell images. A variety of ionotropic receptor antagonists were added to each of the cell cultures. The ionotropic receptor antagonist was Bicuculline which is GABA (gamma-aminobutyrate) receptor antagonist; or CNQX (6-cyano-7-nitroquinoxaline-2,3-dione) which is non-NMDA Glu (glutamate) receptor antagonist.
(§2) The cell image was analyzed with the use of the above-described cell analysis system. Specifically, the motion information was extracted by block matching, using each of the neural cells in the cell image as the extraction range, and the motion amount was calculated from the motion information. FIGS. 9 to 12 are graphs showing results of the calculation of the motion amount. […] Note that the motion amounts shown in the respective figures are average values of the calculated motion amounts for a plurality of detail parts of nerves. […]

[2] = system: iPS cell-derived neural cells “iCell Neuron”; assay: Motion amount of iCell Neuron after adding ionotropic receptor antagonists (Example 2); conditions: 5 μM, FIGS. 9 and 10
Experimental: as §1, §2

[3] = system: rat cerebral cortex primary culture; assay: Motion amount of rat cerebral cortex primary culture after adding aquaporin inhibitor (Example 3); conditions: 5 μm of HgCl2, FIG. 15
Experimental: Further, on the microscope having the chamber, rat cerebral cortex primary culture (produced by Lonza, Inc.) was set. A video image of the cells, of 260 frames at object lens magnification 20× and at 7.5 fps (for iCell Neuron) or 5 fps (for rat cerebral cortex primary culture), was taken and was obtained as a cell image. To the cell culture, […] of HgCl2 as aquaporin inhibitor was added.
The cell image was analyzed with the use of the above-described cell analysis system. Specifically, the motion information was extracted by block matching, using each of the neural cells in the cell image as the extraction range, and the motion amount was calculated from the motion information. FIG. 15 is a graph showing a result of the calculation of the motion amount. In the figure, “0 min” in the abscissa is the time of the addition of the […], and the ordinate indicates a relative motion amount when the value before adding HgCl2 (at 0 min) is assumed to be 1.

[4] = system: metabolism of the cell; assay: Effect on metabolism of the cell; conditions: 5 μm of HgCl2
[5] = system: rat cerebral cortex primary culture; assay: Motion amount of rat cerebral cortex primary culture on change in osmotic pressure by galactose (Example 3); conditions: galactose at a final concentration of 2.5%, compared with no galactose, FIG. 14
Experimental: On the microscope having the chamber, rat cerebral cortex primary culture (produced by Lonza, Inc.) was set. A video image of the cells, of 260 frames at object lens magnification 20× and at 5 fps, was taken and was obtained as a cell image. To the cell culture, galactose at a final concentration of 2.5% was added. The cell image was analyzed with the use of the above-described cell analysis system. Specifically, the motion information was extracted by block matching, using each of the neural cells in the cell image as the extraction range, and the motion amount was calculated from the motion information.

## N#Cc1cc2c(cc1[N+](=O)[O-])=NC(=O)C(=O)N=2 [CNQX, 6-cyano-7-nitroquinoxaline-2,3-dione]
[1]; 5 μM, FIGS. 11 and 12
  relative motion amount after adding the ionotropic receptor antagonist, value at 0 min = 1: decreased
[1]; 5 μm of CNQX, FIG. 13
  motion amount for each individual cell: the cells in which the motion amount was decreased by an influence of the Glu receptor antagonist and the cells in which the motion amount was not decreased
[2]
  relative motion amount after adding the ionotropic receptor antagonist, value at 0 min = 1: transiently reduced

## [Cl][Hg][Cl] [HgCl2]
[3]
  relative motion amount after adding HgCl2, value at 0 min = 1: transiently reduced
[4]
  inhibition of metabolism of the cell: does not inhibit metabolism of the cell

## O=C[C@H](O)[C@@H](O)[C@@H](O)[C@H](O)CO [galactose]
[5]
  median value of the motion amounts for the extraction ranges: almost completely reduced
